According to patent publication US8012956B2, “Tropane compounds” (Exelixis, Inc., priority 2007, dated 2011):

Biological target: HSP90 (Homo sapiens, UniProt P07900)
Assay: HSP90 inhibition (HSP90 IC50)
Type: biochemical

IC50	SMILES
< 0.5 µM	Cc1cc(C(N)=O)c(NC2CCC2)cc1C(=O)N[C@H]1C[C@H]2CC[C@@H](C1)N2c1ccc(C(=O)C2CC2)cn1 [5-(cyclobutylamino)-N-{8-[5-(cyclopropylcarbonyl)pyridin-2-yl]-8-azabicyclo[3.2.1]oct-3-endo-yl}-2-methylbenzene-1,4-dicarboxamide]
< 0.5 µM	CC(Nc1cc(C(=O)N[C@H]2C[C@H]3CC[C@@H](C2)N3c2ccc(C(=O)C3CC3)cn2)ccc1C(N)=O)C1CC1 (stereo partly drawn) [N4-{8-[5-(cyclopropylcarbonyl)pyridin-2-yl]-8-azabicyclo[3.2.1]oct-3-endo-yl}-2-[(1-cyclopropylethyl)amino]benzene-1,4-dicarboxamide]
< 0.5 µM	CCCNc1cc(C(=O)N[C@H]2C[C@H]3CC[C@@H](C2)N3c2ccc(C(=O)C3CC3)cn2)c(Br)cc1C(N)=O [2-bromo-N-{8-[5-(cyclopropylcarbonyl)pyridin-2-yl]-8-azabicyclo[3.2.1]oct-3-endo-yl}-5-(propylamino)benzene-1,4-dicarboxamide]
1 to 2 µM	COc1cccc(C(=O)N[C@H]2C[C@H]3CC[C@@H](C2)N3c2ccc(C(N)=O)cn2)c1CCCCN(C)C [6-(3-endo[({2-[4-(dimethylamino)butyl]-3-(methyloxy)phenyl}carbonyl)amino]-8-azabicyclo[3.2.1]oct-8-yl}pyridine-3-carboxamide]
2 to 10 µM	COc1cccc(C(=O)NC2CC3CCC(C2)N3c2ccc(C(=O)NC[C@H](C)O)cn2)c1C (stereo partly drawn) [N-[(2S)-2.hydroxypropyl]-6-[3-endo-({[2-methyl-3-(methyloxy)phenyl]carbonyl}amino)-8-azabicyclo[3.2.1]oct-8-yl]pyridine-3-carboxamide]
< 0.5 µM	Cc1cc(C(N)=O)c(NC(C)C(F)F)cc1C(=O)N[C@H]1C[C@H]2CC[C@@H](C1)N2c1ccc(C(=O)C2CC2)cn1 (stereo partly drawn) [N-{8-[5-(cyclopropylcarbonyl)pyridin-2-yl]-8-azabicyclo[3.2.1]oct-3-endo-yl}-5-[(2,2-difluoro-1-methylethyl)amino]-2-methylbenzene-1,4-dicarboxamide]
2 to 10 µM	COc1cccc(C(=O)N[C@H]2C[C@H]3CC[C@@H](C2)N3c2ccc(C(=O)NCc3ccccc3)cn2)c1I [6-[3-endo-({[2-iodo-3-(methyloxy)phenyl]carbonyl}amino)-8-azabicyclo[3.2.1]oct-8-yl]-N-(phenylmethyl)pyridine-3-carboxamide]
< 0.5 µM	CC(=O)c1ccc(N2[C@@H]3CC[C@H]2C[C@@H](NC(=O)c2ccc(C(N)=O)c(NC4CC4)c2)C3)nc1 [N4-[8-(5-acetylpyridin-2-yl)-8-azabicyclo[3.2.1]oct-3-endo-yl]-2-(cyclopropylamino)benzene-1,4-dicarboxamide]
< 0.5 µM	CCC(CC)Nc1cc(C(=O)NC2CC3CCC(C2)N3c2ccc(C(=O)N[C@H]3CCN(C(C)C)C3)cn2)ccc1C(N)=O (stereo partly drawn) [2-[(1-ethylpropyl)amino]-N4-{8-[5-({[(3S)-1-(1-methylethyl)pyrrolidin-3-yl]amino}carbonyl)pyridin-2-yl]-8-azabicyclo[3.2.1]oct-3-endo-yl}benzene-1,4-dicarboxamide]
< 0.5 µM	CCC(C)Nc1cc(C(=O)N[C@H]2C[C@H]3CC[C@@H](C2)N3c2ccc(C(C)=O)cn2)ccc1C(N)=O (stereo partly drawn) [N4-[8-(5-acetylpyridin-2-yl)-8-azabicyclo[3.2.1]oct-3-endo-yl]-2-((1-methylpropyl)amino]benzene-1,4-dicarboxamide]
< 0.5 µM	C[C@H](NC(=O)c1ccc(N2C3CCC2CC(NC(=O)c2ccc(C(N)=O)c(NCCS(C)(=O)=O)c2)C3)nc1)c1ccc(N2CCN(C)CC2)cc1 (stereo partly drawn) [N4-(8-{5-[({(1S)-1-[4-(4-methylpiperazin-1-yl)phenyl]ethyl}amino)carbonyl]pyridin-2-yl}-8-azabicyclo[3.2.1]oct-3-endo-yl)-2-{[2-(methylsulfonyl)ethyl]amino}benzene-1,4-dicarboxamide]
< 0.5 µM	C[C@H](NC(=O)c1ccc(N2C3CCC2CC(NC(=O)c2ccc(C(N)=O)c(NC4CCC4)c2)C3)nc1)c1ccc(N2CCN(C)CC2)cc1 (stereo partly drawn) [2-(cyclobutylamino)-N4-(8-{5-[({(1S) 1-[4-(4-methylpiperazin-1-yl)phenyl]ethyl}amino)carbonyl]pyridin-2-yl}-8-azabicyclo[3.2.1]oct-3-endo-yl)benzene-1,4-dicarboxamide]
1 to 2 µM	COc1cccc(C(=O)N[C@H]2C[C@H]3CC[C@@H](C2)N3c2ccc(C(=O)NC3CC3)cn2)c1C [N-cyclopropyl-6-[3-endo-({[2-methyl-3-(methyloxy)phenyl]carbonyl}amino)-8-azabicyclo[3.2.1]oct-8-yl]pyridine-3-carboxamide]
< 0.5 µM	Cc1cc(C(=O)N[C@H]2C[C@H]3CC[C@@H](C2)N3c2ccc(C(=O)N[C@H]3CCN(C(C)C)C3)cn2)c(C)cc1C(N)=O [2,5-dimethyl-N-{8-[5-({[(3S)-1-(1-methylethyl)pyrrolidin-3-yl]amino}carbonyl)pyridin-2-yl]-8-azabicyclo[3.2.1]oct-3-endo-yl}benzene-1,4-dicarboxamide]
1 to 2 µM	COc1ccccc1CNC(=O)c1ccc(N2[C@@H]3CC[C@H]2C[C@@H](NC(=O)c2cccc(OC)c2C)C3)nc1 [6-[3-endo-({[2-methyl-3-(methyloxy)phenyl]carbonyl}amino)-8-azabicyclo[3.2.1]oct-8-yl]-N-{[2-(methyloxy)phenyl]methyl}pyridine-3-carboxamide]
< 0.5 µM	NC(=O)c1ccc(C(=O)N[C@H]2C[C@H]3CC[C@@H](C2)N3c2ccc(C(=O)CCN3CCCCC3)cn2)cc1NCC1CC1 [2-[(cyclopropylmethyl)amino]-N4-{8-(5-(3-piperidin-1-ylpropanoyl)pyridin-2-yl]-8-azabicyclo[3.2.1]oct-3-endo-yl}benzene-1,4-dicarboxamide]
2 to 10 µM	COc1cccc(C(=O)N[C@H]2C[C@H]3CC[C@@H](C2)N3c2ccc(C(=O)NCc3ccc(OC(F)(F)F)cc3)cn2)c1C [6-[3-endo-({[2-methyl-3-(methyloxy)phenyl]carbonyl}amino)-8-azabicyclo[3.2.1]oct-8-yl]-N-({4-[(trifluoromethyl)oxy]phenyl}methyl) pyridine-3-carboxamide]

Continued, compound first:

SMILES	IC50
CCCNc1cc(C(=O)N[C@H]2C[C@H]3CC[C@@H](C2)N3c2ccc(C(=O)C3CC3)cn2)c(C)cc1C(N)=O [N-{8-[5-(cyclopropylcarbonyl)pyridin-2-yl]-8-azabicyclo[3.2.1]oct-3-endo-yl}-2-methyl-5-(propylamino)benzene-1,4-dicarboxamide]	< 0.5 µM
COc1cccc(CNC(=O)c2ccc(N3[C@@H]4CC[C@H]3C[C@@H](NC(=O)c3cccc(OC)c3C)C4)nc2)c1 [6-[3-endo-({[2-methyl-3-(methyloxy)phenyl]carbonyl}amino)-8-azabicyclo[3.2.1]oct-8-yl]-N-{[3-(methyloxy)phenyl]methyl}pyridine-3-carboxamide]	2 to 10 µM
COc1cccc(C(=O)N[C@H]2C[C@H]3CC[C@@H](C2)N3c2ccc(C(=O)NCc3cnc(C)cn3)cn2)c1C [6-[3-endo-({[2-methyl-3-(methyloxy)phenyl]carbonyl}amino)-8-azabicyclo[3.2.1]oct-8-yl]-N-[(5-methylpyrazin-2-yl)methyl]pyridine-3-carboxamide]	< 0.5 µM
CCN1CC(NC(=O)c2ccc(N3[C@@H]4CC[C@H]3C[C@@H](NC(=O)c3cc(C)c(C(N)=O)cc3C)C4)nc2)C1 [N-[8-(5-{[(1-ethylazetidin-3-yl)amino]carbonyl}pyridin-2-yl)-8-azabicyclo[3.2.1]oct-3-endo-yl]-2,5-dimethylbenzene-1,4-dicarboxamide]	< 0.5 µM
CCCNc1cc(C(=O)N[C@H]2C[C@H]3CC[C@@H](C2)N3c2ccc(C(=O)C3CC3)cn2)ccc1C(N)=O [N4-{8-[5-(cyclopropylcarbonyl)pyridin-2-yl]-8-azabicyclo[3.2.1]oct-3-endo-yl}-2-(propylamino)benzene-1,4-dicarboxamide]	< 0.5 µM
NC(=O)c1ccc(C(=O)NC2CC3CCC(C2)N3c2ccc(C(=O)NC3CCCC3)cn2)cc1N[C@H]1CC[C@H](O)CC1 (stereo partly drawn) [N4-(8-{5-((cyclopentylamino)carbonyl]pyridin-2-yl}-8-azabicyclo[3.2.1]oct-3-endo-yl)-2-[(4-trans-hydroxycyclohexyl)amino]benzene-1,4-dicarboxamide]	< 0.5 µM
Cc1c(C(=O)NC2CC3CCC(C2)N3c2ccc(C(=O)N[C@@H](C)c3ccc(N4CCN(C)CC4)cc3)cn2)cccc1N(C)C (stereo partly drawn) [6-[3-endo-({[3-(dimethylamino)-2-methylphenyl]carbonyl}amino)-8-azabicyclo[3.2.1]oct-8-yl]-N-{(1S)-1-[4-(4-methylpiperazin-1-yl)phenyl]ethyl}pyridine-3-carboxamide]	2 to 10 µM
COc1cccc(C(=O)NC2CC3CCC(C2)N3c2ccc(C(=O)N[C@H]3CCCC[C@@H]3O)cn2)c1C (stereo partly drawn) [N-[(1S,2S)-2-hydroxycyclohexyl]-6-[3-endo-({[2-methyl-3-(methyloxy)phenyl]carbonyl}amino)-8-azabicyclo[3.2.1]oct-8-yl]pyridlne-3-carboxamide]	2 to 10 µM
CC[C@H](C)Nc1cc(C(=O)NC2CC3CCC(C2)N3c2ccc(C(C)=O)cn2)ccc1C(N)=O (stereo partly drawn) [N4-[8-(5-acetylpyridin-2-yl)-8-azabicyclo[3.2.1]oct-3-endo-yl]-2-{[(1S)-1-methylpropyl]amino}benzene-1,4-dicarboxamide]	< 0.5 µM
COc1cccc(C(=O)N[C@H]2C[C@H]3CC[C@@H](C2)N3c2ccc(C(=O)Nc3ccccc3C)cn2)c1C [6-[3-endo-({[2-methyl-3-(methyloxy)phenyl]carbonyl}amino)-8-azabicyclo[3.2.1]oct-8-yl]-N-(2-methylphenyl)pyridine-3-carboxamide]	2 to 10 µM
Cc1c(O)cccc1C(=O)NC1CC2CCC(C1)N2c1ccc(C(=O)N[C@@H](C)c2ccc(N3CCN(C)CC3)cc2)cn1 (stereo partly drawn) [6-(3-endo-{[(3-hydroxy-2-methylphenyl)carbonyl]amino}-8-azabicyclo[3.2.1]oct-8-yl)-N-{(1S)-1-[4-(4-methylpiperazin-1-yl)phenyl]ethyl}pyridine-3-carboxamide]	< 0.5 µM
COc1cccc(C(=O)N[C@H]2C[C@H]3CC[C@@H](C2)N3c2ccc(C(=O)Nc3cccc(C)c3)cn2)c1C [6-[3-endo-({[2-methyl-3-(methyloxy)phenyl]carbonyl}amino)-8-azabicyclo[3.2.1]oct-8-yl]-N-(3-methylphenyl)pyridine-3-carboxamide]	2 to 10 µM
